Assays:
[1] = tested on: sensory panel of trained judges; experiment: Concentration response curve: sweetness intensity scored against sucrose reference standards, Beidler equation fit; type: in vivo, human; settings: for Potency at 5 SEV: room temperature, P=SEV*10,000/C; for Beidler equation SEV=a*C/(b+C): constant b (concentration) / Beidler equation SEV=a*C/(b+C): constant a (maximum SEV): best fitting Beidler equation; for Beidler equation SEV=a*C/(b+C): constant b (concentration): C in ppm or mg/L; for Beidler equation SEV=a*C/(b+C): constant a (maximum SEV): SEV = % sucrose equivalent sweetness
Experimental: A blend composed of 80% purified mogroside-V (Chem Faces, CFS202202), 15% 11-oxo-mogroside-V (Chem Faces, CFS202201), and 5% mogroside IIIA-1 (Chem Faces, CFS202201) was diluted to six different concentrations (from 100 ppm to 650 ppm) in spring water (Ice Mountain, retail). For each solution, a set of five reference standards of sucrose dissolved in water in 0.5% (w/w) concentration increments was also prepared. Each concentration of the mogroside blend was evaluated by 6-8 trained judges. Samples were presented in 4-oz soufflé cups at room temperature, and the test sample was labeled with a random 3-digit code. Panelists tasted the blind-coded sample compared to the set of reference samples to determine the sweetness intensity score to the nearest 0.1 unit. Each concentration was evaluated in duplicate. The sweetness intensity scores were then plotted against the mogroside blend concentration to make a concentration response curve, and the best fitting Beidler equation was generated. […] is a 90% pure mogroside V containing about 6% 11-oxo mogroside-V. Five different concentrations of V90 (Huacheng Bio, LHGE-230401), ranging from 100 ppm to 500 ppm, were diluted in spring water (Ice Mountain, retail). Each dilution was presented to a panel of 7-8 judges experienced in evaluating sweeteners and was accompanied by a range of five sucrose solution reference standards bracketing the sweetness intensity of the test sample in 0.5% (w/w) increments. Panelists assigned a sweetness intensity score to each test sample, including blind duplicates, to the nearest 0.1 unit. All samples were served at room temperature in 4-oz soufflé cups with the test samples labeled with random 3-digit codes. Water and […] crackers were provided for rinsing between samples. Both individual mogrosides were also evaluated at five different concentrations in spring water (Ice Mountain, retail) for sweetness intensity. 11-oxo-mogroside was diluted to concentrations ranging from 200 ppm to 600 ppm and mogroside IIIA-1 was diluted to concentrations from 100 to 500 ppm. For each concentration, a set of five sucrose solution reference standards were prepared in 0.5% (w/w) increments to approximately bracket the sweetness intensity of the test sample. A panel of 6-8 trained judges evaluated each test sample in duplicate, accompanied by the corresponding reference standards, and assigned a sweetness intensity score to the sample to the nearest 0.1 unit. Samples were presented in 4-oz soufflé cups at room temperature, and the test sample was labeled with a random 3-digit code. The sweetness intensity scores were then plotted as a function of mogroside concentration to make a concentration response curve, and the best fitting Beidler equation was generated. P=SEV*10,000/C • where C is the concentration of the mogroside blend in ppm or mg/L and SEV is the % sucrose equivalent sweetness determined by sensory panel.

[2] = tested on: sensory panel of trained judges; experiment: Temporal properties: onset of sweetness, time to maximum sweetness, decay after expectorating; type: in vivo, human; settings: 600 ppm, about 6 SEV, in spring water
Experimental: Equi-sweet solutions at about 6 SEV were made in spring water (Ice Mountain, retail) of the following sweeteners: purified mogroside-V (Chem Faces, CFS202202), rebaudioside M (95%, Tate & Lyle, lot #1802-2302-1), rebaudioside A (95%, Tate & Lyle, 210617-01), and monk fruit (50% mogroside V, Tate & Lyle, 45GF220305). Another solution was prepared at about 6 SEV of a blend composed of 80% purified mogroside-V (Chem Faces, CFS202202), 15% 11-oxo-mogroside-V (Chem Faces, CFS202201), and 5% mogroside IIIA-1 (Chem Faces, CFS202201). The concentration of each solution can be found in Table 7.
A set of samples of each solution was evaluated by a panel of 7-9 trained judges. Panelists measured the time to onset of sweetness and time to reach maximum sweetness using a timer. Sweetness decay after expectorating was measured by rating sweetness intensity every 5 seconds on a 15-cm line scale graduated in evenly spaced 5-point increments and labeled low (0) to high (60). […] Blind duplicates were evaluated in a second panel under the same conditions.
A solution of V90 was made at 410 ppm in spring water (Ice Mountain, retail) to be about 6 SEV. […] A panel of 7-8 trained judges evaluated the temporal properties and taste attributes of each sample, including blind duplicates, in the same manner described previously in the Mogroside Blend 80/15/5 Taste Quality sections. […]

[3] = tested on: sensory panel of experienced judges; experiment: Descriptive analysis of sweetener attributes on a 15-cm line scale, low (0) to high (60); type: in vivo, human; settings: about 6 SEV solution, 0=low, 60=high
Excerpt: The same samples described above were presented to a panel of 6-9 experienced judges for descriptive analysis. Solutions were blind-coded with random 3-digit codes and served at room temperature for evaluation. Panelists individually scored attributes of each sample, such as sweetness intensity, bitterness, astringency, and the presence of side flavors such as licorice or fruitiness. Scores were based on a 15-cm line scale marked with evenly spaced 5-point increments from low (0) to high (60). Samples were evaluated in duplicate. Water and […] crackers were provided for rinsing between samples. A solution of […] was made at 410 ppm in spring water (Ice Mountain, retail) to be about 6 SEV. A second solution was made at about 6 SEV of purified mogroside-V (Chem Faces, CFS202202) at 325 ppm. A panel of 7-8 trained judges evaluated the temporal properties and taste attributes of each sample, including blind duplicates, in the same manner described previously in the Mogroside Blend 80/15/5 Taste Quality sections. The panel also evaluated the intensity of several sensory attributes such as bitterness, astringency, caramel flavor, and fruitiness. The same 15-cm line scale was used for scoring, labeled from low (0) to high (60) with evenly spaced 5-point increments. The samples were served in 4-oz soufflé cups that were labeled with random 3-digit codes. Samples were evaluated at room temperature and included blind duplicates. Water and […] crackers were provided for rinsing between samples. A 400-ppm solution of V90 (Huacheng Bio, LHGE-230401) was tasted as a reference at the beginning of the descriptive analysis session for calibration verification among panelists.

[4] = tested on: sensory panel of trained judges; settings: 6 SEV solution of sucrose; cited from earlier work
[5] = in spring water, from Beidler curve

| Structure (SMILES) | Potency at 5 SEV [1, 5] [x] | Beidler equation SEV=a*C/(b+C): constant b (concentration) [1] [ppm] | Beidler equation SEV=a*C/(b+C): constant a (maximum SEV) [1] [SEV] | Astringent, average intensity score [3] | Bitterness, average intensity score [3] | Body, average intensity score [3] | Caramel, average intensity score [3] | Fruity, average intensity score [3] | Licorice, average intensity score [3] | Sweet Linger, average intensity score [3] | Sweetness, average intensity score [3] | other results |
| --- | --- | --- | --- | --- | --- | --- | --- | --- | --- | --- | --- | --- |
| C[C@H](CC[C@@H](O[C@@H]1O[C@H](CO[C@@H]2O[C@H](CO)[C@@H](O)[C@H](O)[C@H]2O)[C@@H](O)[C@H](O)[C@H]1O[C@@H]1O[C@H](CO)[C@@H](O)[C@H](O)[C@H]1O)C(C)(C)O)[C@H]1CC[C@@]2(C)[C@@H]3CC=C4[C@@H](CC[C@H](O[C@@H]5O[C@H](CO[C@@H]6O[C@H](CO)[C@@H](O)[C@H](O)[C@H]6O)[C@@H](O)[C@H](O)[C@H]5O)C4(C)C)[C@]3(C)C(=O)C[C@]12C [11-oxo-mogroside V] | 28 | 546.3 | 6.56 | – | – | – | – | – | – | – | – | times as sweet as sucrose at 5 SEV ([1]; in spring water, running text, listed as 11-oxo mogroside-V): approximately 28 times as sweet as sucrose; times as sweet as sucrose at 5 SEV ([1]; in spring water, running text, listed as 11-oxo-mogroside-V): 28 times as sweet as sucrose |
| C[C@H](CC[C@@H](O[C@@H]1O[C@H](CO[C@@H]2O[C@H](CO)[C@@H](O)[C@H](O)[C@H]2O)[C@@H](O)[C@H](O)[C@H]1O[C@@H]1O[C@H](CO)[C@@H](O)[C@H](O)[C@H]1O)C(C)(C)O)[C@H]1CC[C@@]2(C)[C@@H]3CC=C4[C@@H](CC[C@H](O)C4(C)C)[C@]3(C)[C@H](O)C[C@]12C [Mogroside IIIA-1, mogroside III-A1] | 71 | 139.9 | 6.00 | – | – | – | – | – | – | – | – | bitter taste still present after expectorating [2]: more than 60 seconds |
| C[C@H](CC[C@@H](O[C@@H]1O[C@H](CO[C@@H]2O[C@H](CO)[C@@H](O)[C@H](O)[C@H]2O)[C@@H](O)[C@H](O)[C@H]1O[C@@H]1O[C@H](CO)[C@@H](O)[C@H](O)[C@H]1O)C(C)(C)O)[C@H]1CC[C@@]2(C)[C@@H]3CC=C4[C@@H](CC[C@H](O[C@@H]5O[C@H](CO[C@@H]6O[C@H](CO)[C@@H](O)[C@H](O)[C@H]6O)[C@@H](O)[C@H](O)[C@H]5O)C4(C)C)[C@]3(C)[C@H](O)C[C@]12C [Mogroside V, mogroside V] | 185 | 920.8 | 22.03 | – | – | – | – | – | – | – | – | times as sweet as sucrose at 5 SEV ([1]; in spring water, listed as purified Mog-V): ~200 times as sweet as sucrose; times as sweet as sucrose at 5 SEV ([1]; in spring water, running text, listed as mogroside V): 185 times as sweet as sucrose; times as sweet as sucrose at 5 SEV ([1]; in spring water, running text, listed as mogroside-V): about 185 times as sweet as sucrose; Potency at 10 SEV ([1]; 10 SEV, in spring water, from Beidler curve, beyond tested concentrations): 131x; Astringent, average intensity score ([3]; listed as Mog·V): 2.5¤; Bitterness, average intensity score ([3]; listed as Mog·V): 1.4¤; Body, average intensity score ([3]; listed as Mog·V): 12.1¤; Caramel, average intensity score ([3]; listed as Mog·V): 4.5¤; Fruity, average intensity score ([3]; listed as Mog·V): 3.0¤; Licorice, average intensity score ([3]; listed as Mog·V): 0.7¤; Sweet Linger, average intensity score ([3]; listed as Mog·V): 14.3¤; Sweetness, average intensity score ([3]; listed as Mog·V): 36.3¤ |
| C=C1C[C@@]23CC[C@H]4[C@@](C)(CCC[C@@]4(C)C(=O)O[C@@H]4O[C@H](CO)[C@@H](O)[C@H](O)[C@H]4O)[C@@H]2CC[C@]1(O[C@@H]1O[C@H](CO)[C@@H](O)[C@H](O[C@@H]2O[C@H](CO)[C@@H](O)[C@H](O)[C@H]2O)[C@H]1O[C@@H]1O[C@H](CO)[C@@H](O)[C@H](O)[C@H]1O)C3 [Rebaudioside A, rebaudioside A] | – | – | – | 3.7¤ | 11.2¤ | 9.1¤ | 1.9¤ | 1.3¤ | 2.7¤ | 9.6¤ | 35.1¤ | – |
| C=C1C[C@@]23CC[C@H]4[C@@](C)(CCC[C@@]4(C)C(=O)O[C@@H]4O[C@H](CO)[C@@H](O)[C@H](O[C@@H]5O[C@H](CO)[C@@H](O)[C@H](O)[C@H]5O)[C@H]4O[C@@H]4O[C@H](CO)[C@@H](O)[C@H](O)[C@H]4O)[C@@H]2CC[C@]1(O[C@@H]1O[C@H](CO)[C@@H](O)[C@H](O[C@@H]2O[C@H](CO)[C@@H](O)[C@H](O)[C@H]2O)[C@H]1O[C@@H]1O[C@H](CO)[C@@H](O)[C@H](O)[C@H]1O)C3 [Rebaudioside M, rebaudioside M] | – | – | – | 2.0¤ | 1.7¤ | 11.2¤ | 3.5¤ | 1.6¤ | 1.0¤ | 17.3¤ | 36.4¤ | – |
| OC[C@H]1O[C@@](CO)(O[C@H]2O[C@H](CO)[C@@H](O)[C@H](O)[C@H]2O)[C@@H](O)[C@@H]1O [sucrose] | – | – | – | – | – | – | – | – | – | – | – | sweet linger decay time (typical value) [4]: 20 to 25 s |
